Results: US10905656B2, “Methods and compositions for treating arteriosclerotic vascular diseases” (GOLDEN BIOTECHNOLOGY CORPORATION, priority 2012, dated 2021)

Columns and labels:
[1] = system: A7r5 cells (rat aortic smooth muscle cells); assay: MTT assay, cytotoxic effect on smooth muscle cells; type: cell-based; settings: 0 μg/ml-3 μg/ml, 24 hours
Source text: (§1) MTT assay is commonly used to determine cell proliferation, percent of viable cells, and cytotoxicity. MTT (3[4,5-dimethylthiazol-2-yl]2,5-diphenyltetrazolium bromide) is a yellow dye, which can be absorbed by the living cells and be reduced to purplish blue formazan crystals by succinate tetrazolium reductase in mitochondria. Formazan formation can therefore be used to assess and determine the survival rate of cells. A solubilization solution (usually either dimethyl sulfoxide, an acidified ethanol solution, or a solution of the detergent sodium dodecyl sulfate in diluted hydrochloric acid) is added to dissolve the insoluble purple formazan product into a colored solution. The absorbance of this colored solution can be quantified by measuring at a certain wavelength (usually between 500 and 600 nm) by a spectrophotometer. The more surviving cells, the higher the absorbance. The percentage of cell survival (%)=OD value of experimental group÷OD value of control group×100%. Procedure
1. […]
3. […] The survival rate of cells was calculated based on the measurement of absorption at the 570 nm wavelength by ELISA reader.
(§2) Potential cytotoxicity of Compound 1 to smooth muscle cells was tested. […] As shown in FIGS. 2A/2B, the cytotoxic effect of Compound 1 at different concentrations on smooth muscle cells (A7r5) was determined via MTT assay (FIG. 2A) and LDH assay (FIG. 2B).

[2] = system: A7r5 cells (rat aortic smooth muscle cells); assay: Lactate dehydrogenase (LDH) activity assay, cytotoxicity; type: cell-based; settings: 0 μg/ml-3 μg/ml, 24 hours
Source text: Cells have plenty of lactate dehydrogenase (LDH). When cells are healthy, LDH cannot freely cross cell membrane. […] LDH activity in the culture medium is directly proportional to the number of dead cells. The cell viability can be measured quantitatively to detect absorbance by using colorimetric method at a wavelength of 492 nm. The change of the absorbance values come from the fact that LDH catalyzes the conversion of lactate to pyruvate with the concomitant production of NADH. The NADH, in the presence of diaphorase and tetrazolium salt INT, is used to drive the diaphorase-catalyzed production of red formazan product. The present experiment utilizes Cytotoxicity Assay Kit (Promega) to conduct culture medium LDH Quantitation assay.
(§3) 1. Adherence of cells: 2×10^4 cells/ml/well of A7r5 cells were seeded onto a 24-well plate and incubated at 37° C. for 24 hours.
2. Dosing: 500 ul/well different concentrations of compound 1 were formulated in culture medium containing 10% FBS/DMEM and incubated for 24 hours. […]
3. […] Absorbance was measured by ELISA reader at the 490 nm wavelength.
as §2

[3] = system: PDGF-stimulated A7r5 cells; assay: PDGF-stimulated smooth muscle cell proliferation, MTT assay; type: cell-based, Rattus norvegicus; settings: 3 μg/ml, 20 hours pretreatment, PDGF 24 hours
Source text: as §1, §3
2. Dosing: 500 ul/well different concentrations of compound 1 were pretreated in culture medium containing 1% FBS/DMEM for 20 hours. […]
3. […] The survival rate of cells was calculated based on the measurement of absorption at the 570 nm wavelength by ELISA reader. […]

[4] = system: PDGF-stimulated A7r5 cells; assay: Wound scratching test, PDGF-stimulated smooth muscle cell migration; type: cell-based, Rattus norvegicus; settings: 3 μg/ml, 24 hours
Procedure: 1. A7r5 cells (5×10^6 cells/ml) were seeded onto a 6-well cell culture plate and incubated at 37° C. overnight.
2. 1×PBS was used to wash the wells twice. Compound 1 with different concentrations in DMEM culture medium containing 1% FBS was added and pretreated for 20 hours.
3. A cross-shape acellular space was created by a sterile 200 μl pipette tip and washed twice with 1×PBS.
4. After removing PBS, 2 ml PDGF in DMEM culture medium containing 1% FBS were added. The cells were photographed by a microscope at 0, 6, 12 and 24 hours, respectively from the time of adding PDGF.
The inhibition of Compound 1 on migration of smooth muscle cells (A7r5 cells) was investigated in a wound scratching test by measuring PDGF-stimulated cell migration distance. The PDGF-stimulated cell culture without Compound 1 treatment was used as positive control.

[5] = system: mice with carotid artery ligation; assay: Carotid artery ligation model, neointima formation; type: in vivo, C57BL/6J mice; settings: 60 mg/kg body weight oral gavage, from three days before ligation, 28 days; control higher than 3.0; p<0.001
Source text: Arteries are vessels that carry blood away from the heart. The carotid arteries are blood vessels that supply blood to the head, neck and brain. One carotid artery is position on each side of the neck. The right common carotid artery branches from the brachiocephalic artery and extends up the right side of the neck. The left common carotid artery branches from the aorta and extends up the left side of the neck. Each carotid artery branches into internal and external vessels near the top of the thyroid. Following the study by Hsing-Chun Chung (Dissertation, 2008, Southern Taiwan University), the carotid artery ligation was conducted on the left common carotid artery in mice to induce neointimal thickening.
This experiment used 8-week-old C57BL/6J male mice having about 25 g of body weight, which were purchased from National Laboratory Animal Center. These mice were maintained at the Laboratory Animal center of National Defense Medical Center on a 12 hour dark/12 hour light cycle in air conditional rooms (18-26° C., 30%-70% humidity).
1. The animals were given Compound 1 by oral gavage three days prior to the surgery and were continuously fed with Compound 1 for 28 days by oral gavage.
2. […]

LDLR mRNA = LDLR mRNA expression in HepG2 by RT-PCR; type: cell-based, human; settings: HepG2, after addition of compound
Procedure: FIG. 10A-B show results of LDLR mRNA expression in HepG2 cell line induced by an exemplary cyclohexenone Compound 1. HepG2 cell line was serum-starved overnight and challenged with 20 μM Compound 1 at indicated time intervals (1A). Cells were then collected and the mRNA expression level of LDLR and GAPDH (internal control) were detected by RT-PCR. The relative expression level of LDLR to GAPDH was quantified by densitometry (1B). Experiments were conducted in triplicate. Bar represented as mean±SEM. * indicates p<0.05 and ** indicates p<0.01.
HepG2 cells were cultured in MEM alpha medium (Invitrogen/Gibco BRL, Grand Island, N.Y., USA). Cells were cultured at 37° C. in 5% CO2 in culture media supplemented with 10% fetal bovine serum (Invitrogen/Gibco BRL) and 100 U/ml streptomycin and penicillin (Invitrogen/Gibco BRL). For treatment, cells were seeded in six-well plates at 6.25×10^5 cells/well. On the following day, the media were changed to serum-free and the cells were serum-starved for 24 h. Compound 1 was dissolved in DMSO and diluted to the required concentration with serum-free medium. Cultures were then treated with diluted Compound 1 for the indicated time periods. […]
LDLR mRNA expression level was quantitative analysis by RT-PCR. […] The PCR products intensity was quantified by densitometry using Image-Pro Plus software (Media Cybernetics, Silver Spring, Md.).

ERK1/2 = ERK1/2 phosphorylation in HepG2 by immunoblot; type: cell-based, human; settings: HepG2, 1 h, immunoblot p-ERK1/2
Procedure: FIG. 11A-B show illustrative effective results of the exemplary cyclohexenone Compound 1 stimulates ERK1/2 phosphorylation in HepG2 cell line. (2A), HepG2 cell line was serum-starved overnight and challenged with the indicated concentrations of Compound 1 for 1 h. Whole cell lysates were then immunoblotted with phosphor-ERK1/2 antibody and reprobed with β-actin antibody. Duplicated membrane was probed with ERK1/2 antibody. (2B), the relative expression level of p-ERK1/2 to β-actin was quantified by densitometry. Experiments were conducted in triplicate. Bar represented as mean±SEM.
HepG2 cells were cultured in MEM alpha medium (Invitrogen/Gibco BRL, Grand Island, N.Y., USA). […]
Sixty micrograms of total protein in cell lysate, which was measured using Bradford assay (Sigma-Aldrich, St. Louis, Mo.), was resolved on 12.5% SDS polyacrylamide gels. […] Blots were blocked with 3% BSA and probed with a 1:1,000 dilution of antibodies to phospho-p44/42 (ERK1/2)(Thr202/Tyr204) (Cell Signaling Technology, USA), p44/42MAPK(ERK1/2) (Cell Signaling Technology, USA) or β-actin (Sigma-Aldrich, St. Louis, Mo.), then horse radish-peroxidase (HRP)-conjugated secondary antibody and detected by 3,3′-diaminobenzidine (DAB) substrate kit for peroxidase (Vector Laboratories, Burlingame, Calif.). […]

Structure (SMILES): COC1=C(OC)C(O)C(C/C=C(\C)CC/C=C(\C)CCC=C(C)C)C(C)C1=O (centres unmarked) [Compound 1, 4-hydroxy-2,3-dimethoxy-6-methyl-5-(3,7,11-trimethyldodeca-2,6,10-trienyl)cyclohex-2-enone]
- survival rate of cells (MTT assay) [1]: cell purification was not affected by the drug treatment
- cytotoxicity (LDH assay) [2]: no cytotoxcity has been observed
- reduction of PDGF-stimulated smooth muscle cell proliferation [3]: about 50%
- decrease in PDGF-stimulated smooth muscle cell migration [4]: about 50%
- average N/M ratio (neointima area/medial area) [5]: 1.0
- time at which LDLR mRNA expression was first increased (LDLR mRNA): 2 h
- time at which the LDLR mRNA increase reached a significant level (LDLR mRNA; increased up to 6 h): 4 h
- concentration enough to induce activation of ERK1/2 (ERK1/2): 0.5 µM
